Laboratory results reported in ChEMBL document CHEMBL1201862, “PubChem BioAssay data set” (2004).
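Grown in 96-well plates, cells were treated for 48 hours with each compound at five concentrations. Insufficient inhibition: endpoint recorded as highest concentration tested. GI50 is the concentration that inhibits growth by half.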 The source made the active and inactive calls. No stated cut-off is given here; in the data, active = GI50 up to about 1.1 µM and inactive = higher.

Assays:
Experiment in all cases: NCI anticancer screen, dose series, 48 h
[1] = tested on: HT-29
[2] = tested on: HCT-116
[3] = tested on: PC-3
[4] = tested on: NCI-H23
[5] = tested on: OVCAR-5
[6] = tested on: IGROV-1
[7] = tested on: EKVX
[8] = tested on: A498
[9] = tested on: MCF7
[10] = tested on: OVCAR-3
[11] = tested on: Hs-578T
[12] = tested on: MDA-MB-231
[13] = tested on: MOLT-4
[14] = tested on: NCI-H460
[15] = tested on: SK-MEL-2
[16] = tested on: UACC-257
[17] = tested on: SK-MEL-28
[18] = tested on: LOX IMVI
[19] = tested on: SNB-75
[20] = tested on: SW-620
[21] = tested on: M14
[22] = tested on: SF-539
[23] = tested on: SK-OV-3
[24] = tested on: SF-268
[25] = tested on: COLO 205
[26] = tested on: TK-10
[27] = tested on: BT-549
[28] = tested on: MDA-MB-435
[29] = tested on: HCT-15
[30] = tested on: OVCAR-8
[31] = tested on: CCRF-CEM
[32] = tested on: NCI-H226
[33] = tested on: SF-295
[34] = tested on: KM12
[35] = tested on: ACHN
[36] = tested on: NCI/ADR-RES
[37] = tested on: HOP-62
[38] = tested on: SR
[39] = tested on: U-251
[40] = tested on: 786-0
[41] = tested on: HL-60
[42] = tested on: RXF 393
[43] = tested on: CAKI-1
[44] = tested on: Malme-3M
[45] = tested on: UACC-62
[46] = tested on: HCC 2998
[47] = tested on: T47D
[48] = tested on: OVCAR-4
[49] = tested on: UO-31
[50] = tested on: DU-145
[51] = tested on: HOP-92
[52] = tested on: MDA-N
[53] = tested on: RPMI-8226
[54] = tested on: SNB-19
[55] = tested on: SN12C
[56] = tested on: SK-MEL-5
[57] = tested on: NCI-H522
[58] = tested on: K562
[59] = tested on: A549

Which results are given for O=c1[nH]c2ccc(CC(=S)N3CCOCC3)cc2o1?
GI50 [1]: > 100 µM (inactive); GI50 [2]: > 100 µM (inactive); GI50 [3]: > 100 µM (inactive); GI50 [4]: > 100 µM (inactive); GI50 [5]: > 100 µM (inactive); GI50 [6]: > 100 µM (inactive); GI50 [7]: > 100 µM (inactive); GI50 [8]: > 100 µM (inactive); GI50 [9]: > 100 µM (inactive); GI50 [10]: > 100 µM (inactive); GI50 [11]: > 100 µM (inactive); GI50 [12]: > 100 µM (inactive); GI50 [13]: > 100 µM (inactive); GI50 [14]: > 100 µM (inactive); GI50 [15]: > 100 µM (inactive); GI50 [16]: > 100 µM (inactive); GI50 [17]: > 100 µM (inactive); GI50 [18]: > 100 µM (inactive); GI50 [19]: > 100 µM (inactive); GI50 [20]: > 100 µM (inactive); GI50 [21]: > 100 µM (inactive); GI50 [22]: > 100 µM (inactive); GI50 [23]: > 100 µM (inactive); GI50 [24]: > 100 µM (inactive); GI50 [25]: > 100 µM (inactive); GI50 [26]: > 100 µM (inactive); GI50 [27]: > 100 µM (inactive); GI50 [28]: > 100 µM (inactive); GI50 [29]: > 100 µM; GI50 [30]: > 100 µM (inactive); GI50 [31]: 89.9 µM (inactive); GI50 [32]: > 100 µM (inactive); GI50 [33]: > 100 µM (inactive); GI50 [34]: > 100 µM (inactive); GI50 [35]: > 100 µM (inactive); GI50 [36]: > 100 µM (inactive); GI50 [37]: > 100 µM (inactive); GI50 [38]: 56.6 µM (inactive); GI50 [39]: > 100 µM (inactive); GI50 [40]: > 100 µM (inactive); GI50 [41]: 89.9 µM (inactive); GI50 [42]: > 100 µM (inactive); GI50 [43]: > 100 µM (inactive); GI50 [44]: > 100 µM (inactive); GI50 [45]: > 100 µM (inactive)

With CC1(C)C(=O)C2(N)CCC1C2 (stereo not drawn) as the compound, how does the GI50 [46] read?
The GI50 was > 100 µM (inactive).

And the GI50 [2]?
Its GI50 is > 100 µM (inactive).

What about the GI50 [47] of the same compound?
Its GI50 is > 100 µM (inactive).

What about the GI50 [4] of the same compound?
Its GI50 is > 100 µM (inactive).

What about the GI50 [8] of the same compound?
The GI50 was > 10 µM (inactive).

What about the GI50 [12] of the same compound?
Its GI50 is > 100 µM (inactive).

And the GI50 [48]?
The GI50 was > 100 µM (inactive).

And the GI50 [14]?
The GI50 was > 100 µM (inactive).

And the GI50 [16]?
Its GI50 is > 100 µM (inactive).

And the GI50 [17]?
Its GI50 is > 100 µM (inactive).

What about the GI50 [18] of the same compound?
The GI50 was > 100 µM (inactive).

And the GI50 [19]?
Its GI50 is > 100 µM (inactive).

What about the GI50 [49] of the same compound?
Its GI50 is > 100 µM (inactive).

And the GI50 [50]?
The GI50 was > 100 µM (inactive).

What about the GI50 [51] of the same compound?
The GI50 was > 100 µM (inactive).

What about the GI50 [24] of the same compound?
The GI50 was > 100 µM (inactive).

What about the GI50 [25] of the same compound?
Its GI50 is > 100 µM (inactive).

What about the GI50 [26] of the same compound?
Its GI50 is > 100 µM (inactive).

What about the GI50 [52] of the same compound?
The GI50 was > 100 µM (inactive).

And the GI50 [27]?
Its GI50 is > 100 µM (inactive).

And the GI50 [28]?
Its GI50 is > 100 µM (inactive).

What about the GI50 [29] of the same compound?
The GI50 was > 100 µM.

And the GI50 [30]?
The GI50 was > 100 µM (inactive).

And the GI50 [53]?
Its GI50 is > 100 µM (inactive).

And the GI50 [31]?
Its GI50 is > 100 µM (inactive).

What about the GI50 [32] of the same compound?
Its GI50 is > 100 µM (inactive).

And the GI50 [34]?
The GI50 was > 100 µM (inactive).

And the GI50 [35]?
The GI50 was > 100 µM (inactive).

And the GI50 [36]?
Its GI50 is > 100 µM (inactive).

What about the GI50 [38] of the same compound?
Its GI50 is > 100 µM (inactive).

What about the GI50 [39] of the same compound?
Its GI50 is > 100 µM (inactive).

And the GI50 [40]?
Its GI50 is > 100 µM (inactive).

What about the GI50 [54] of the same compound?
Its GI50 is > 100 µM (inactive).

What about the GI50 [55] of the same compound?
Its GI50 is > 100 µM (inactive).

What about the GI50 [43] of the same compound?
Its GI50 is > 100 µM (inactive).

And the GI50 [45]?
Its GI50 is > 100 µM (inactive).

Which results are given for OC1c2ccccc2CCC1C(O)(C(F)(F)F)C(F)(F)F (stereo not drawn)?
GI50 [1]: > 100 µM (inactive); GI50 [46]: > 100 µM (inactive); GI50 [2]: > 100 µM (inactive); GI50 [3]: > 100 µM (inactive); GI50 [47]: > 100 µM (inactive); GI50 [4]: 85.1 µM (inactive); GI50 [5]: > 100 µM (inactive); GI50 [6]: > 100 µM (inactive); GI50 [7]: > 100 µM (inactive); GI50 [8]: > 100 µM (inactive); GI50 [9]: 46.3 µM (inactive); GI50 [10]: 58.6 µM (inactive); GI50 [11]: > 100 µM (inactive); GI50 [12]: 11 µM (inactive); GI50 [48]: > 100 µM (inactive); GI50 [13]: > 100 µM (inactive); GI50 [14]: > 100 µM (inactive); GI50 [15]: > 100 µM (inactive); GI50 [56]: > 100 µM (inactive); GI50 [17]: > 100 µM (inactive); GI50 [18]: > 100 µM (inactive); GI50 [19]: 45.8 µM (inactive); GI50 [20]: > 100 µM (inactive); GI50 [21]: > 100 µM (inactive); GI50 [49]: > 100 µM (inactive); GI50 [50]: > 100 µM (inactive); GI50 [51]: 35.1 µM (inactive); GI50 [22]: > 100 µM (inactive); GI50 [57]: > 100 µM (inactive); GI50 [23]: > 100 µM (inactive); GI50 [58]: > 100 µM (inactive); GI50 [24]: > 100 µM (inactive); GI50 [25]: > 100 µM (inactive); GI50 [26]: > 100 µM (inactive); GI50 [52]: > 100 µM (inactive); GI50 [28]: > 100 µM (inactive); GI50 [59]: > 100 µM (inactive); GI50 [29]: > 100 µM; GI50 [30]: > 100 µM (inactive); GI50 [53]: > 100 µM (inactive); GI50 [31]: > 100 µM (inactive); GI50 [32]: 38.4 µM (inactive); GI50 [33]: > 100 µM (inactive); GI50 [34]: > 100 µM (inactive); GI50 [35]: > 100 µM (inactive); GI50 [36]: > 100 µM (inactive); GI50 [37]: > 100 µM (inactive); GI50 [38]: > 100 µM (inactive); GI50 [39]: > 100 µM (inactive); GI50 [40]: > 100 µM (inactive); GI50 [54]: > 100 µM (inactive); GI50 [55]: > 100 µM (inactive); GI50 [41]: > 100 µM (inactive); GI50 [42]: > 100 µM (inactive); GI50 [43]: > 100 µM (inactive); GI50 [44]: > 100 µM (inactive); GI50 [45]: > 100 µM (inactive)
